{
  "source": "patent US8268292B2",
  "about": "“Obovatol having anti-anxiety activity” (Korea Research Institute of Bioscience and Biotechnology, priority 2005, dated 2012)",
  "type_in_all_cases": "in vivo",
  "key": {"ICR mice": {"system": "ICR mice", "test": "acute toxicity test on ICR mice", "settings": "oral 10, 100 and 1000 mg/kg, observed for 2 weeks", "description": "(§1) The acute toxicity tests on ICR mice (mean body weight 25±5 g) and Sprague-Dawley rats (235±10 g, Biogenomics Co., Ltd.) were performed using the obovatol compound. Four groups consisting of 3 mice or rats was administrated orally with 10 mg/kg, 100 mg/kg and 1000 mg/kg of test sample or solvents (0.2 mL, […].) respectively and observed for 2 weeks."}, "ICR male mice [1]": {"system": "ICR male mice", "test": "locomoter activity test", "settings": "oral 0.2, 0.5 and 1.0 mg/kg; dose dependent", "description": "All the animals used in the test are prepared in the similar method according to Experimental Example 1.\nTo determine and re-confirm the anti-anxiety activity of obovatol, following locomoter activity test was performed as follow in accordance with the procedure cited in the literature (Kulkarni S. K. et al., Methods and Findings in Experimental and Clinical Pharmacology, 18, pp. 219-230, 1996).\nAll the animals were transferred to test cage (diameter: 20 cm, height: 18 cm) one hour prior to the administration of test samples, acclimated the environment for 10 mins and the locomoter activity was determined automatically at every 1 hour."}, "Sprague-Dawley rats": {"system": "Sprague-Dawley rats", "test": "acute toxicity test on Sprague-Dawley rats", "settings": "oral 10, 100 and 1000 mg/kg, observed for 2 weeks", "description": "as §1"}, "ICR male mice [2]": {"system": "ICR male mice", "test": "elevated plus-maze model test", "description": "Animals and Drugs: ICR male mice weighing from 20 g to 28 g (5 or 6 weeks) were purchased from Daehan Biolink Co., Ltd. (Korea) and housed for at least 7 days prior to the experiment under 12-h light/dark cycle (lights on at 7:00 am) in a temperature-controlled (22±2° C.) animal facility. Food and water were freely accessible. All mice were maintained in accordance with the National Institute of Toxicological Research on the Korea Food and Drug Administration guideline for the care and use of laboratory animals. Diazepam (ample type) was purchased from Dea-Won Pharmaceutical Co. (South Korea) and was orally administered 30 min prior to the experiment. Obovatol was kindly gifted from Korea Research Institute of Bioscience and Biotechnology and was orally administered 60 min prior to the experiment.\nTreatment of Test Sample: obovatol prepared from Example 1 was dissolved in 0.1 ml of ethanol and diluted with 0.1% Tween-80 in order to administrate with an amount of 0.1 ml/10 g per weight of test animal. Various concentrations of test sample (obovatol), i.e., 0.2, 0.5 and 1 mg/kg were orally administrated at 1 hour prior to the experiment and […] of diazepam was peritoneally administrated into animal at 30 mins prior to the experiment.\nTo determine the anti-anxiety activity after administration of obovatol, elevated plus-maze model test was performed as follow in accordance with procedure cited in the literature (Dawson, G. R. et al., Trends in Pharmacological Sciences, 16, pp. 33-36, 1995).\nElevated plus-maze apparatus consists of two perpendicular open (30×5 cm) and two closed arms (30×5 cm) with 15 cm high walls, extending from the central platform (5×5 cm). […] All experimental sessions were recorded with a video camera mounted vertically above the maze. The activity on the open arm was evaluated as: 1) time spent on the open arms relative to the total time spent in the plus-maze, expressed as a percentage (100× time spent on open arm/total time in the plus-maze); 2) the number of entries into both open and closed arms, expressed as a percentage (100× open/total entries). […]"}},
  "data": [
    {"substance": "obovatol", "values": [
      {"measurement": "treatment-related effects on mortality, clinical signs, body weight changes and gross findings", "setting": "ICR mice", "value": "no treatment-related effects"},
      {"measurement": "locomoter activity", "setting": "ICR male mice [1]", "value": "significantly decreased"},
      {"measurement": "treatment-related effects on mortality, clinical signs, body weight changes and gross findings", "setting": "Sprague-Dawley rats", "value": "no treatment-related effects"},
      {"measurement": "anti-anxiety activity relative to diazepam", "setting": "ICR male mice [2]; at the same doses of the drugs, elevated plus-maze, FIG. 3 and FIG. 4", "value": "more potent anti-anxiety activity than diazepam"},
      {"measurement": "percentage of time spent in the open arms", "setting": "ICR male mice [2]; oral 0.2, 0.5 and 1.0 mg/kg, 60 min prior (P<0.05, P<0.05 and P<0.005)", "value": "significant increases"},
      {"measurement": "percentage of entries into open arms", "setting": "ICR male mice [2]; oral 0.2, 0.5 and 1.0 mg/kg, 60 min prior, dose dependent, compared with diazepam treated group (P<0.05, P<0.05 and P<0.005)", "value": "significantly increased"}
    ]}
  ]
}
